In PMC7134601 (Febs Letters, 2004):
Entries after “also recorded” stand apart in the source; their conditions may differ.

What was measured:
SARS‐CoV 3CL protease = SARS‐CoV 3CL protease (Severe acute respiratory syndrome coronavirus, UniProt P0C6X7); assay: biochemical; assay type: biochemical
SARS‐CoV [1] = assay type: cell-based
SARS‐CoV [2] = assay type: cell-based; remark: listed apart in the source

| Compound | Ki (SARS‐CoV 3CL protease) | inhibition pattern with respect to the substrate (SARS‐CoV 3CL protease) | inhibition of 3CL protease activity (SARS‐CoV 3CL protease) | further results |
| --- | --- | --- | --- | --- |
| CC(=O)[O][Hg][c]1ccccc1 [Phenylmercuric acetate] | 700 ± 300 nM | competitive | – | effect on detection of the viral spike protein (SARS‐CoV [1]): suppressed detection of the viral spike protein |
| O=C(Nc1ccc([N+](=O)[O-])cc1Cl)c1cc(Cl)ccc1O [niclosamide, Niclosamide] | – | – | not indicative of any inhibitory effect | – |
| [Ni+2] [Ni^2+] | – | – | did not inhibit | – |
| [Co+2] [Co^2+] | – | – | did not inhibit | – |
| [Mg+2] [Mg^2+] | – | – | did not inhibit | – |
| [Zn+2] [Zn^2+] | 1100 ± 400 nM | non‐competitively; also recorded: non‐competitive | effective | fold larger K i versus 1‐hydroxypyridine‐2‐thione zinc (SARS‐CoV 3CL protease): 6 fold |
| [Mn+2] [Mn^2+] | – | – | did not inhibit | – |
| [O-]n1ccccc1=S.[O-]n1ccccc1=S.[Zn+2] [1‐Hydroxypyridine‐2‐thione zinc] | – | competitive | – | – |
| C[CH2][Hg][S]c1ccccc1C(=O)[O-].[Na+] [Thimerosal] | 2400 ± 200 nM | competitive | – | decrease of the detectable quantity of the spike protein (SARS‐CoV [1]): over 90% |
| [Cu+2] [Cu^2+] | 4900 ± 1300 nM | – | effective | – |
| Oc1c(Cl)cc(Cl)c(Cl)c1Cc1c(O)c(Cl)cc(Cl)c1Cl [Hexachlorophene] | 13700 ± 400 nM | competitive | – | inhibition of cytopathic effect (SARS‐CoV [2]): strong inhibition; cytotoxicity (Vero E6 cells): No cytotoxicity; cells still alive (Vero E6 cells; African green monkey): approximately 50% |
| [Hg+2] [Hg^2+] | – | – | effective | – |
